Reference: ChEMBL document CHEMBL1201862, “PubChem BioAssay data set” (2004)
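All cell lines were grown in 96-well plates and treated with compound for 48 hours. The concentration for 50% growth inhibition is given as GI50.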 The source made the active and inactive calls. Cut-off read from the data, not from the text of the source: active = GI50 up to about 1.1 µM and inactive = higher.

Experiments:
Assay in all cases: NCI anticancer screen, dose series, 48 h
SW-620 = tested on: SW-620
NCI-H460 = tested on: NCI-H460
TK-10 = tested on: TK-10
NCI-H522 = tested on: NCI-H522
HT-29 = tested on: HT-29
HCC 2998 = tested on: HCC 2998
SK-MEL-2 = tested on: SK-MEL-2
NCI/ADR-RES = tested on: NCI/ADR-RES
SK-OV-3 = tested on: SK-OV-3
NCI-H226 = tested on: NCI-H226
SK-MEL-28 = tested on: SK-MEL-28
HCT-116 = tested on: HCT-116
RPMI-8226 = tested on: RPMI-8226
OVCAR-8 = tested on: OVCAR-8
Malme-3M = tested on: Malme-3M
DMS-273 = tested on: DMS-273
BT-549 = tested on: BT-549
786-0 = tested on: 786-0
UACC-62 = tested on: UACC-62
MDA-MB-435 = tested on: MDA-MB-435
DMS-114 = tested on: DMS-114
SF-295 = tested on: SF-295
MDA-N = tested on: MDA-N
SF-268 = tested on: SF-268
EKVX = tested on: EKVX
RXF 393 = tested on: RXF 393
LXFL 529 = tested on: LXFL 529
HOP-18 = tested on: HOP-18
HL-60 = tested on: HL-60
MOLT-4 = tested on: MOLT-4
SF-539 = tested on: SF-539
HCT-15 = tested on: HCT-15
SNB-78 = tested on: SNB-78
ACHN = tested on: ACHN
HOP-92 = tested on: HOP-92
UO-31 = tested on: UO-31
UACC-257 = tested on: UACC-257
CAKI-1 = tested on: CAKI-1
T47D = tested on: T47D
OVCAR-4 = tested on: OVCAR-4
OVCAR-3 = tested on: OVCAR-3
M19-MEL = tested on: M19-MEL
SR = tested on: SR
SNB-75 = tested on: SNB-75
A549 = tested on: A549
COLO 205 = tested on: COLO 205
OVCAR-5 = tested on: OVCAR-5
DU-145 = tested on: DU-145
CCRF-CEM = tested on: CCRF-CEM
MCF7 = tested on: MCF7
KM-20L2 = tested on: KM-20L2
PC-3 = tested on: PC-3
XF498 = tested on: XF498
U-251 = tested on: U-251
K562 = tested on: K562
NCI-H23 = tested on: NCI-H23
DLD-1 = tested on: DLD-1
IGROV-1 = tested on: IGROV-1
SN12C = tested on: SN12C
LOX IMVI = tested on: LOX IMVI
Hs-578T = tested on: Hs-578T
SK-MEL-5 = tested on: SK-MEL-5
A498 = tested on: A498
KM12 = tested on: KM12
HOP-62 = tested on: HOP-62
MDA-MB-231 = tested on: MDA-MB-231
M14 = tested on: M14
SNB-19 = tested on: SNB-19

Cc1cnc(NCCCN(C)C)c2c1[nH]c1ccc3cc(O)ccc3c12
GI50 (SW-620): 0.166 µM (active) | GI50 (NCI-H460): 0.0439 µM (active) | GI50 (TK-10): 6.04 µM (inactive) | GI50 (NCI-H522): 0.129 µM (active) | GI50 (HT-29): 0.362 µM (active) | GI50 (HCC 2998): 0.326 µM (active) | GI50 (SK-MEL-2): 1.03 µM (active) | GI50 (NCI/ADR-RES): 3.44 µM (inactive) | GI50 (SK-OV-3): 0.569 µM (active) | GI50 (NCI-H226): 0.435 µM (active) | GI50 (SK-MEL-28): 1.39 µM (inactive) | GI50 (HCT-116): 0.236 µM (active) | GI50 (RPMI-8226): 0.6 µM (active) | GI50 (OVCAR-8): 0.2 µM (active) | GI50 (Malme-3M): 0.879 µM (active) | GI50 (DMS-273): 0.462 µM (active) | GI50 (BT-549): 1.52 µM (inactive) | GI50 (786-0): 0.2 µM (active) | GI50 (UACC-62): 0.678 µM (active) | GI50 (MDA-MB-435): 1.1 µM (active) | GI50 (DMS-114): 0.0962 µM (active) | GI50 (SF-295): 0.7 µM (active) | GI50 (MDA-N): 1.04 µM (active) | GI50 (SF-268): 0.288 µM (active) | GI50 (EKVX): 1.49 µM (inactive) | GI50 (RXF 393): 0.667 µM (active) | GI50 (LXFL 529): 0.142 µM (active) | GI50 (HOP-18): 1.43 µM (inactive) | GI50 (HL-60): 3.32 µM (inactive) | GI50 (MOLT-4): 0.0181 µM (active) | GI50 (SF-539): 0.508 µM (active) | GI50 (HCT-15): 4.63 µM | GI50 (SNB-78): 0.929 µM (active) | GI50 (ACHN): 0.552 µM (active) | GI50 (HOP-92): 0.187 µM (active) | GI50 (UO-31): 2.03 µM (inactive) | GI50 (UACC-257): 4.6 µM (inactive) | GI50 (CAKI-1): 0.566 µM (active) | GI50 (T47D): 0.485 µM (active) | GI50 (OVCAR-4): 0.282 µM (active) | GI50 (OVCAR-3): 0.505 µM (active) | GI50 (M19-MEL): 0.383 µM (active) | GI50 (SR): 0.0617 µM (active) | GI50 (SNB-75): 0.555 µM (active) | GI50 (A549): 0.365 µM (active) | GI50 (COLO 205): 0.244 µM (active) | GI50 (OVCAR-5): 0.925 µM (active) | GI50 (DU-145): 1.29 µM (inactive) | GI50 (CCRF-CEM): 1.01 µM (active) | GI50 (MCF7): 0.308 µM (active) | GI50 (KM-20L2): 0.266 µM (active) | GI50 (PC-3): 0.585 µM (active) | GI50 (XF498): 0.222 µM (active) | GI50 (U-251): 0.164 µM (active) | GI50 (K562): 1.28 µM (inactive) | GI50 (NCI-H23): 0.499 µM (active) | GI50 (DLD-1): 0.49 µM (active) | GI50 (IGROV-1): 1.19 µM (inactive) | GI50 (SN12C): 0.244 µM (active) | GI50 (LOX IMVI): 0.247 µM (active) | GI50 (Hs-578T): 0.325 µM (active) | GI50 (SK-MEL-5): 0.815 µM (active) | GI50 (A498): 1.56 µM (inactive) | GI50 (KM12): 1.39 µM (inactive) | GI50 (HOP-62): 0.267 µM (active) | GI50 (MDA-MB-231): 0.879 µM (active) | GI50 (M14): 1.28 µM (inactive) | GI50 (SNB-19): 0.48 µM (active)

O=C(O)CCc1coc2ccc(O)cc12
GI50 (SW-620): > 100 µM (inactive) | GI50 (NCI-H460): > 100 µM (inactive) | GI50 (TK-10): > 100 µM (inactive) | GI50 (HT-29): > 100 µM (inactive) | GI50 (HCC 2998): > 100 µM (inactive) | GI50 (SK-OV-3): > 100 µM (inactive) | GI50 (SK-MEL-28): > 100 µM (inactive) | GI50 (HCT-116): > 100 µM (inactive) | GI50 (RPMI-8226): > 100 µM (inactive) | GI50 (OVCAR-8): > 100 µM (inactive) | GI50 (DMS-273): > 100 µM (inactive) | GI50 (786-0): > 100 µM (inactive) | GI50 (UACC-62): > 100 µM (inactive) | GI50 (DMS-114): > 100 µM (inactive) | GI50 (SF-295): > 100 µM (inactive) | GI50 (EKVX): > 100 µM (inactive) | GI50 (RXF 393): > 100 µM (inactive) | GI50 (LXFL 529): > 100 µM (inactive) | GI50 (HOP-18): > 100 µM (inactive) | GI50 (HL-60): > 100 µM (inactive) | GI50 (MOLT-4): > 100 µM (inactive) | GI50 (SF-539): > 100 µM (inactive) | GI50 (HCT-15): > 100 µM | GI50 (SNB-78): > 100 µM (inactive) | GI50 (ACHN): > 100 µM (inactive) | GI50 (HOP-92): 75.7 µM (inactive) | GI50 (UACC-257): > 100 µM (inactive) | GI50 (CAKI-1): > 100 µM (inactive) | GI50 (OVCAR-4): > 100 µM (inactive) | GI50 (OVCAR-3): > 100 µM (inactive) | GI50 (M19-MEL): > 100 µM (inactive) | GI50 (SNB-75): > 100 µM (inactive) | GI50 (A549): > 100 µM (inactive) | GI50 (COLO 205): > 100 µM (inactive) | GI50 (CCRF-CEM): > 100 µM (inactive) | GI50 (KM-20L2): > 100 µM (inactive) | GI50 (XF498): > 100 µM (inactive) | GI50 (U-251): > 100 µM (inactive) | GI50 (K562): > 100 µM (inactive) | GI50 (NCI-H23): > 100 µM (inactive) | GI50 (DLD-1): > 100 µM (inactive) | GI50 (IGROV-1): > 100 µM (inactive) | GI50 (SN12C): > 100 µM (inactive) | GI50 (LOX IMVI): > 100 µM (inactive) | GI50 (SK-MEL-5): > 100 µM (inactive) | GI50 (A498): > 100 µM (inactive) | GI50 (HOP-62): > 100 µM (inactive) | GI50 (M14): > 100 µM (inactive) | GI50 (SNB-19): > 100 µM (inactive)

CCCn1cc2c(O)nc(SC)nc2n1
GI50 (SW-620): > 100 µM (inactive) | GI50 (NCI-H460): > 100 µM (inactive) | GI50 (TK-10): > 100 µM (inactive) | GI50 (HT-29): > 100 µM (inactive) | GI50 (HCC 2998): > 100 µM (inactive) | GI50 (SK-MEL-2): > 100 µM (inactive) | GI50 (NCI-H226): 19.9 µM (inactive) | GI50 (SK-MEL-28): > 100 µM (inactive) | GI50 (HCT-116): > 100 µM (inactive) | GI50 (RPMI-8226): > 100 µM (inactive) | GI50 (OVCAR-8): > 100 µM (inactive) | GI50 (Malme-3M): > 100 µM (inactive) | GI50 (DMS-273): > 100 µM (inactive) | GI50 (DMS-114): 91.6 µM (inactive) | GI50 (SF-295): > 100 µM (inactive) | GI50 (SF-268): 59 µM (inactive) | GI50 (EKVX): > 100 µM (inactive) | GI50 (RXF 393): > 100 µM (inactive) | GI50 (LXFL 529): > 100 µM (inactive) | GI50 (HOP-18): 28.8 µM (inactive) | GI50 (HL-60): > 100 µM (inactive) | GI50 (MOLT-4): > 100 µM (inactive) | GI50 (SF-539): > 100 µM (inactive) | GI50 (HCT-15): > 100 µM | GI50 (SNB-78): 32.3 µM (inactive) | GI50 (ACHN): > 100 µM (inactive) | GI50 (HOP-92): > 100 µM (inactive) | GI50 (UO-31): 72.6 µM (inactive) | GI50 (UACC-257): > 100 µM (inactive) | GI50 (CAKI-1): > 100 µM (inactive) | GI50 (OVCAR-4): 91.4 µM (inactive) | GI50 (SR): 57.3 µM (inactive) | GI50 (SNB-75): 41.6 µM (inactive) | GI50 (A549): > 100 µM (inactive) | GI50 (COLO 205): > 100 µM (inactive) | GI50 (OVCAR-5): 79.4 µM (inactive) | GI50 (CCRF-CEM): > 100 µM (inactive) | GI50 (XF498): 45.3 µM (inactive) | GI50 (U-251): > 100 µM (inactive) | GI50 (K562): > 10 µM (inactive) | GI50 (NCI-H23): > 100 µM (inactive) | GI50 (DLD-1): > 100 µM (inactive) | GI50 (IGROV-1): > 100 µM (inactive) | GI50 (SN12C): > 100 µM (inactive) | GI50 (LOX IMVI): > 100 µM (inactive) | GI50 (SK-MEL-5): > 100 µM (inactive) | GI50 (A498): 59.6 µM (inactive) | GI50 (KM12): > 100 µM (inactive) | GI50 (M14): > 100 µM (inactive) | GI50 (SNB-19): > 100 µM (inactive)
